# Assay results: patent US20130096160A1, “ARYLTHIAZOLYL PIPERIDINES AND RELATED COMPOUNDS AS MODULATORS OF SURVIVAL MOTOR NEURON (SMN) PROTEIN PRODUCTION” (Secretary, Department of Health and Human Services, priority 2010, published 2013)
# Tested on: SMN2-luciferase reporter
# Experiment: SMN2-luciferase reporter qHTS assay
# Type: cell-based, human
# Set-up: key to Curve Class: A curve class of 1.1 is a full agonist/antagonist; a curve class of 4 indicates the compound is inactive
# Settings: for Curve Class: agonist/antagonist character of the concentration-response, lower values = more significant concentration-response; for Increased SMN2 activity: percent increase (or decrease) in SMN2 levels compared to control in which no test compound is added
# Text: A cell-based quantitative high throughput screening (qHTS) assay is used to identify compounds able to increase SMN production. The assay uses a SMN2-luciferase reporter to determine if exon 7 of the SMN gene is expressed, which correlates with increased full-length SMN production from the SMN2 gene. As controls, a homologue SMN1-luciferase reporter cell line looks for variations in expression of the SMN1 gene and a cell line with just the luciferase reporter looks at the capacity of the compounds to inhibit luciferase. In addition, increments in SMN production by lead compounds were confirmed by Western-Blot analysis using SMA patient fibroblasts.
# For the qHTS assay, concentration-response profiles are generated at the primary-screen level for each library compound to minimize the number of false positives. A dilution series consisting of seven points separated by five-fold concentration differences is prepared for each compound, yielding a concentration series that spans a range of about four orders of magnitude, for example from a high concentration of 50 micromolar to a low concentration of 3.2 nanomolar and providing adequate data for fitting to a Hill equation. For the assay, the SMN2 reporter cell line was plated at a density of ˜2000 cells/well in complete media (phenol red free DMEM, 10% detacl calf serum, and 1× pen/strep), in 1536 well white solid bottom tissue culture treated plates (Greiner). Cells were allowed to adhere and recover at 37 C in 5% CO2 for 10-12 hours. Compounds were added to the plates by a Pintool (Kalypsys) at a volume of 23 nl/well. Cells were incubated in the presence of compounds for 2 days at 37 C in 5% CO2. In order to quantify luciferase reporter levels, 3 ul/well of OneGlo (Promega) was added to each well and incubated at room temperature for 10 minutes. Luminescence from the reporter in each well is measured using a Viewlux CCD based imager (Perkin Elmer) with an integration time of 30 seconds and a binning of 2× in luminescence mode. Sodium butyrate was used as the positive control compound for luciferase induction and a column of 32 wells of 9.2 mM compound on each plate was used to monitor assay performance.
# The SMN reporters used herein are modified from those previously described (M. L. Zhang, C. L. Lorson, E. J. Androphy and J. Zhou, An in vivo reporter system for measuring increased inclusion of exon 7 in SMN2 mRNA: potential therapy of SMA, Gene Ther 8 (2001), pp. 1532-1538.)
# The sequence of the SMN1 reporter vector used herein is given in SEQ ID NO.:1, while that of the SMN2 reporter vector is given in SEQ ID NO.:2.
# Each of the SMN reporters is constructed from three separate DNA fragments: (1) an SMN promotor sequence from the transcriptional reporter p 4.0T (SMN1) or p3.4C (SMN2) described in Monani, et al. Biochimica et Biophysica Acta 1445 (1999) 330-336; (2) a modification of the firefly luciferase splicing reporter for SMN1 or SMN2 described by Zhang et al; and (3) a 744 bp SMN cDNA fragment.
# The 3.7 kB SMN1 promoter fragment is obtained by restriction of p4.0T with BglII and SacII. A 3.4 kB SMN2 promoter fragment is obtained by restriction of p3.4C with KpnI and SacII; a 300 bp BglII/KpnI fragment from p4.0T is then added to the 3.4 kB SMN2 promoter fragment to yield the final 3.7 kB SMN2 promoter fragment.
# The modified SMN1 and SMN2 firefly luciferase splicing reporters are obtained by removing 4 kB of intron 6 in the original reporter system by restriction with SmaI/Swa followed by religation of the reporter. A 4 kB luciferase splicing reporter is then obtaind by digestion with XhoI and NotI.
# Ths SMN cDNA fragment is obtained by generating the productof a polymerase chain reaction (PCR) on a cDNA preparation using […] (SEQ ID NO:3) as the forward primer and Tatctcgagtggtccagaaggaaatggaggcagcc (SEQ ID NO:4) as the reverse primer. The PCR product is then digested with XhoI and SacII. […]
structure (smiles),measurement,value
"NC(=O)C1CCN(c2nc(-c3cccc4sc5ccccc5c34)cs2)CC1 [Example 64, 1-(4-(Dibenzo[b,d]Thiophen-1-yl)Thiazol-2-yl)Piperidine-4-Carboxamide]",Curve Class,2.1
same,Increased SMN2 activity,369%
"Cn1ccc2cc(-c3csc(N4CCC(C(N)=O)CC4)n3)ccc21 [Example 65, 1-(4-(1-Methyl-1H-Indol-5-yl)Thiazol-2-yl)Piperidine-4-Carboxamide]",Curve Class,1.1
same,Increased SMN2 activity,534%
"NC(=O)C1CCN(c2nc(-c3cc4ccccc4o3)cs2)CC1 [Example 68, 1-(4-(Benzofuran-2-yl)Thiazol-2-yl)Piperidine-4-Carboxamide]",Curve Class,2.1
same,Increased SMN2 activity,100%
"CNC(=O)C1CCN(c2nc(-c3ccc(Br)cc3)cs2)CC1 [Example 70, 1-(4-(4-Bromophenyl)Thiazol-2-yl)-N-Methylpiperidine-4-Carboxamide]",Curve Class,2.1
same,Increased SMN2 activity,101.9%
"CN(C)C(=O)C1CCN(c2nc(-c3ccc(Br)cc3)cs2)CC1 [Example 71, 1-(4-(4-Bromophenyl)Thiazol-2-yl)-N,N-Dimethylpiperidine-4-Carboxamide]",Curve Class,2.4
same,Increased SMN2 activity,42.71%
"O=C(Nc1ccccc1)C1CCN(c2nc(-c3ccc(Br)cc3)cs2)CC1 [Example 72, 1-(4-(4-Bromophenyl)Thiazol-2-yl)-N-Phenylpiperidine-4-Carboxamide]",Curve Class,1.1
same,Increased SMN2 activity,262.4%
"O=C(C1CCN(c2nc(-c3ccc(Br)cc3)cs2)CC1)N1CCOCC1 [Example 74, (1-(4-(4-Bromophenyl)Thiazol-2-yl)Piperidin-4-yl)(Morpholino)Methanone]",Curve Class,2.2
same,Increased SMN2 activity,77.48%
"O=C(NCCc1ccccc1)C1CCN(c2nc(-c3ccc(Br)cc3)cs2)CC1 [Example 77, 1-(4-(4-Bromophenyl)Thiazol-2-yl)-N-Phenethylpiperidine-4-Carboxamide]",Curve Class,2.4
same,Increased SMN2 activity,31.29%
"NC(=O)C1CCN(c2nccc(-c3ccc(Br)cc3)n2)CC1 [Example 80, 1-(4-(4-Bromophenyl)Pyrimidin-2-yl)Piperidine-4-Carboxamide]",Curve Class,1.1
same,Increased SMN2 activity,387%
"NC(=O)C1CCN(c2nc(-c3cccc(C(F)(F)F)c3)cs2)CC1 [Example 81, 1-(4-(3-(Trifluoromethyl)Phenyl)Thiazol-2-yl)Piperidine-4-Carboxamide]",Curve Class,2.2
same,Increased SMN2 activity,100%
"COc1ccc(-c2csc(N3CCC(C(N)=O)CC3)n2)cc1OC [Example 83, 1-(4-(3,4-Dimethoxyphenyl)Thiazol-2-yl)Piperidine-4-Carboxamide]",Curve Class,2.4
same,Increased SMN2 activity,58.51%
"COc1cc(-c2csc(N3CCC(C(N)=O)CC3)n2)cc(OC)c1OC [Example 84, 1-(4-(3,4,5-Trimethoxyphenyl)Thiazol-2-yl)Piperidine-4-Carboxamide]",Curve Class,2.2
same,Increased SMN2 activity,73.33%
"COc1cc(OC)cc(-c2csc(N3CCC(C(N)=O)CC3)n2)c1 [Example 85, 1-(4-(3,5-Dimethoxyphenyl)Thiazol-2-yl)Piperidine-4-Carboxamide]",Curve Class,1.4
same,Increased SMN2 activity,44.77%
"NC(=O)C1CCN(c2ncc(-c3ccc(Br)cc3)s2)CC1 [Example 87, 1-(5-(4-Bromophenyl)Thiazol-2-yl)Piperidine-4-Carboxamide]",Curve Class,1.1
same,Increased SMN2 activity,598.7%
"CN(C)c1cccc(-c2cnc(N3CCC(C(N)=O)CC3)s2)c1 [Example 88, 1-(5-(3-(Dimethylamino)Phenyl)Thiazol-2-yl)Piperidine-4-Carboxamide]",Curve Class,1.1
same,Increased SMN2 activity,550.44%
"CN(C)c1cccc(-c2cnc(N3CCC(C(N)=O)CC3)nc2)c1 [Example 89, 1-(5-(3-(Dimethylamino)Phenyl)Pyrimidin-2-yl)Piperidine-4-Carboxamide]",Curve Class,1.1
same,Increased SMN2 activity,236.25%
"CN(C)c1cccc(-c2ccnc(N3CCC(C(N)=O)CC3)n2)c1 [Example 90, 1-(4-(3-(Dimethylamino)Phenyl)Pyrimidin-2-yl)Piperidine-4-Carboxamide]",Curve Class,1.1
same,Increased SMN2 activity,446.3%
"CC(C)Oc1ccc(-c2csc(N3CCC(C(N)=O)CC3)n2)cc1 [Example 91, 1-(4-(4-Isopropoxyphenyl)Thiazol-2-yl)Piperidine-4-Carboxamide]",Curve Class,1.1
same,Increased SMN2 activity,178.2%
"NC(=O)C1CCN(c2nc(-c3ccc(Oc4ccccc4)cc3)cs2)CC1 [Example 92, 1-(4-(4-Phenoxyphenyl)Thiazol-2-yl)Piperidine-4-Carboxamide]",Curve Class,1.1
same,Increased SMN2 activity,240%
"NC(=O)C1CCN(c2nc(-c3ccc4c(c3)OCC4)cs2)CC1 [Example 93, 1-(4-(2,3-Dihydrobenzofuran-6-yl)Thiazol-2-yl)Piperidine-4-Carboxamide]",Curve Class,2.1
same,Increased SMN2 activity,401.7%
"NC(=O)C1CCN(c2nc(-c3ccc(OC(F)(F)F)cc3)cs2)CC1 [Example 95, 1-(4-(4-(Trifluoromethoxy)Phenyl)Thiazol-2-yl)Piperidine-4-Carboxamide]",Curve Class,1.1
same,Increased SMN2 activity,296.8%
"CCOc1ccc(-c2csc(N3CCC(C(N)=O)CC3)n2)cc1 [Example 96, 1-(4-(4-Ethoxyphenyl)Thiazol-2-yl)Piperidine-4-Carboxamide]",Curve Class,1.1
same,Increased SMN2 activity,211.6%
"CC(C)(C)c1ccc(-c2csc(N3CCC(C(N)=O)CC3)n2)cc1 [Example 98, 1-(4-(4-Tert-Butylphenyl)Thiazol-2-yl)Piperidine-4-Carboxamide]",Curve Class,1.1
same,Increased SMN2 activity,243.3%
"NC(=O)C1CCN(c2nc(-c3ccc4c(c3)OCCCO4)cs2)CC1 [Example 99, 1-(4-(3,4-Dihydro-2H-Benzo[B][1,4]Dioxepin-7-yl)Thiazol-2-yl)Piperidine-4-Carboxamide]",Curve Class,1.1
same,Increased SMN2 activity,443.2%
"CN(C)c1ccc(-c2csc(N3CCC(C(N)=O)CC3)n2)cc1 [Example 100, 1-(4-(4-(Dimethylamino)Phenyl)Thiazol-2-yl)Piperidine-4-Carboxamide]",Curve Class,2.2
same,Increased SMN2 activity,64.26%
"N#CC1CCN(c2nc(-c3ccc(Br)cc3)cs2)CC1 [Example 102, 1-(4-(4-Bromophenyl)Thiazol-2-yl)Piperidine-4-Carbonitrile]",Curve Class,2.2
same,Increased SMN2 activity,77.87%
